Results reported in patent US20130137084A1, “Single Nucleotide Polymorphism on Chromosome 15 That Predicts HCV Treatment Responses” (Roche Molecular Systems, Inc., priority 2011, published 2013).

Columns and labels:
[1] = system: chronic Hepatitis C genotype 1 infection; test: Study NV21075 Phase 2 clinical study, virological response (undetectable HCV RNA) during the first 12 weeks of treatment; format: in vivo, human patients; conditions: for percentage of patients with undetectable HCV RNA levels at the end of 12 weeks of treatment: limit of detection 15 IU/mL, preliminary interim analysis
Source text: Study NV21075 was a randomized double-blinded multicenter Phase 2 clinical study to evaluate the efficacy and safety of danoprevir in combination with peginterferon alfa 2a and ribavirin (triple therapy combination) when dosed for twelve weeks in treatment-naïve patients with chronic Hepatitis C genotype 1 infection as compared to the currently approved combination of peginterferon alfa 2a and ribavirin (Standard of Care or SOC). Patients enrolled in Study NV21075 were randomized into one of four treatment groups (FIG. 1) (approximately 60 patients for Groups A-C, approximately 30 patients for Group D). In the response-guided treatment groups (as described below), patients with an extended RVR (eRVR, defined as undetectable HCV RNA from […]) stopped all therapy at Week 24.
Patients received double blinded experimental treatment with danoprevir at 300 mg TID (Group A), 600 mg BID (Group B), or 900 mg BID (Group C) and standard of care treatment (SOC, Pegasys 180 μg sc qw+Copegus 1000 mg (<75 kg) or 1200 mg (≧75 kg) po qd) for 12 weeks, followed by SOC for 12 weeks. Patients who achieve an RVR, defined as undetectable HCV RNA at week 4, and remain undetectable through week 22 (i.e. achieving eRVR) stopped all treatment at week 24. […] Treatment Group D: Patients received double blinded placebo treatment for 12 weeks, followed by SOC for 36 weeks for a total duration of 48 weeks.
For the interim analysis of NV21075, efficacy during the first 12 weeks of treatment was measured by the percentage of patients with virological response (undetectable HCV RNA as measured by the Roche Cobas® AmpliPrep/Cobas® Taqman® HCV Test v1.0 [limit of detection 15 IU/mL]). Patients were considered non-responders at a scheduled visit if they had missing data, which may have been due to an assessment that was missed or fell outside of the allowable window for that visit, or an early withdrawal from treatment with a missing follow-up assessment.

HCV = conditions: RBV monotherapy; cited from earlier work

SMILES | percentage of patients with undetectable HCV RNA levels at the end of 12 weeks of treatment ([1]; Treatment Group A: danoprevir 300 mg TID plus SOC) [%] | percentage of patients with undetectable HCV RNA levels at the end of 12 weeks of treatment ([1]; Treatment Group B: danoprevir 600 mg BID plus SOC) [%] | percentage of patients with undetectable HCV RNA levels at the end of 12 weeks of treatment ([1]; Treatment Group C: danoprevir 900 mg BID plus SOC) [%] | change in mean HCV RNA levels ([1]; danoprevir plus SOC, within the first 2 to 4 weeks of treatment, remained lower than SOC up to Week 12) | effect on the replication of HCV (HCV)
CC(C)(C)OC(=O)N[C@H]1CCCCC/C=C\[C@@H]2C[C@@]2(C(=O)NS(=O)(=O)C2CC2)NC(=O)[C@@H]2C[C@@H](OC(=O)N3Cc4cccc(F)c4C3)CN2C1=O [Danoprevir, 4-Fluoro-1,3-dihydro-isoindole-2-carboxylic acid (Z)-(1S,4R,6S,14S,18R)-14-tert-butoxycarbonylamino-4-cyclopropanesulfonylaminocarbonyl-2,15-dioxo-3,16-diaza-tricyclo[14.3.0.0*4,6*]nonadec-7-en-18-yl ester] | 88.1 | 89.2 | 92.0 | precipitous decline | 
NC(=O)c1ncn([C@@H]2O[C@H](CO)[C@@H](O)[C@H]2O)n1 [ribavirin, 1-((2R,3R,4S,5R)-3,4-Dihydroxy-5-hydroxymethyl-tetrahydro-furan-2-yl)-1H-[1,2,4]triazole-3-carboxylic acid amide] |  |  |  |  | little or no effect
